Holding throughout (format): biochemical, human
Common to all, as to conditions: 37° C. 30 minutes, pH 7.0, untreated enzyme as 100

Experiment [1] relates to endothelin converting enzyme I. Description: Effect of inhibitors on activity of converting big endothelin-1 to endothelin-1, enzyme I. The procedure:
(§1) 10 μl of a 100 nmol/ml big endothelin-1 solution is added to 1 ml of an enzyme solution (10 mM trishydrochloric acid-0.15M sodium chloride buffer; pH 7.0), and the enzymatic reaction is carried out at 37° C. for 3 hours. After completion of the reaction, 10 μl of a 0.1M EDTA solution is added thereto to discontinue the reaction. Thereafter, the resultant endothelin-1 is assayed according to the sandwich-EIA method. An enzymatic activity of converting 1 pmol of big endothelin-1 to endothelin-1 per hour under the above-described reaction conditions is termed 1 U (unit).
(§2) A sample and a predetermined concentration of endothelin standard solution are respectively applied to a 96-hole microplate on which ani-endothelin monoclonal antibody is immobilized to thereby cause the […]. […] Then, biotin-labeled anti-endothelin polyclonal antibody and peroxydase-labeled avidin are applied thereto for reaction. After washing the microplate, activity of bound peroxydase is assayed. Endothelin concentration in the sample is assayed based on the calibration curve drawn by using endothelin standard solutions having predetermined concentrations of endothelin.
(§3) The enzymes of the invention were tested for the effects of various inhibitors against the activity of converting big endothelin-1 to endothelin-1.
(§4) Each of the enzymes is incubated in 100 μl of a reaction solution (10 mM tris-hydrochloric acid-0.15M sodium chloride buffer; pH 7.0) containing various inhibitors at 37° C. for 30 minutes, and the residual enzymatic activity is measured in the above-described manner.

The subject of experiment [2] is endothelin converting enzyme II. Description: Effect of inhibitors on activity of converting big endothelin-1 to endothelin-1, enzyme II. The procedure: as §1, §2, §3, §4
The subject of experiment [3] is endothelin converting enzyme III. The experiment is described as follows: Effect of inhibitors on activity of converting big endothelin-1 to endothelin-1, enzyme III. The method, then: as §1, §2, §3, §4
For experiment [4], the system named is endothelin converting enzyme IV. The experiment is described as follows: Effect of inhibitors on activity of converting big endothelin-1 to endothelin-1, enzyme IV. The procedure:
as §1, §2, §3, §4

Molecules are shown by their SMILES. Square brackets hold non-standard residues; d marks the D form. Peptide text beside a SMILES is read from it. * marks the point of attachment. Sta = CC(C)C[C@H](N)[C@@H](O)CC(=O)O; Isovaleryl = CC(C)CC(=O)*

Consider `c1cnc2c(c1)ccc1cccnc12` [1,10-Phenanthroline], for which the “Relative Activity (%)” value in experiment [1] (inhibitor 0.5 mM) was determined as 10%; in experiment [2] (inhibitor 0.5 mM), 5%; in experiment [3] (inhibitor 0.5 mM), 7%; in experiment [4] (inhibitor 0.5 mM) it was 8%.
As to `CC(C)CC(=O)N[C@H](C(=O)N[C@H](C(=O)N[C@@H](CC(C)C)[C@@H](O)CC(=O)N[C@@H](C)C(=O)N[C@@H](CC(C)C)[C@@H](O)CC(=O)O)C(C)C)C(C)C` [Pepstatin A] (Isovaleryl-VV[Sta]A[Sta]-OH), the “Relative Activity (%)” value came out at 99% in experiment [1] (inhibitor 0.01 mM), 100% in experiment [2] (inhibitor 0.01 mM), 99% in experiment [3] (inhibitor 0.01 mM) and 97% in experiment [4] (inhibitor 0.01 mM).
Take `CC(C)C[C@H](NP(=O)(O)O[C@@H]1O[C@@H](C)[C@H](O)[C@@H](O)[C@H]1O)C(=O)N[C@@H](Cc1c[nH]c2ccccc12)C(=O)O` [Phosphoramidon]: the “Relative Activity (%)” value in experiment [1] (inhibitor 0.1 mM) was 1%; in experiment [2] (inhibitor 0.1 mM), 2%; in experiment [3] (inhibitor 0.1 mM), 1%; in experiment [4] (inhibitor 0.1 mM) it was 3%.
